biological target: T1, CFTR (F508del/MF-HBE cells) (Homo sapiens, UniProt P13569, DEL508-508); assay: Ussing chamber assay of CFTR-mediated short-circuit currents, Assay D (single concentration of 1 μM); type: cell-based; conditions: with 44 nM potentiator and 18 μM Tezacaftor, 18-24 hours, 20% human serum
T1 construct: human bronchial epithelial (HBE) cells derived from CF subjects heterozygous for F508del and a minimal function CFTR mutation (F508del/MF-HBE); endogenous in cells; host or cells: Primary human bronchial epithelial cells from CF subjects (F508del/MF genotype), differentiated at an air-liquid interface
Experimental: Ussing chamber experiments were performed using human bronchial epithelial (HBE) cells derived from CF subjects heterozygous for F508del and a minimal function CFTR mutation (F508del/MF-HBE) and cultured as previously described (Neuberger T, Burton B, Clark H, Van Goor F Methods Mol Biol 2011:741:39-54). After four days the apical media was removed, and the cells were grown at an air liquid interface for >14 days prior to use.
To isolate the CFTR-mediated short-circuit (ISC) current, F508del/MF-HBE grown on Costar® Snapwell™ cell culture inserts were mounted in an Ussing chamber and the transepithelial ISC was measured under voltage-clamp recording conditions (Vhold=0 mV) at 37° C. The basolateral solution contained (in mM) 145 NaCl, 0.83 K2HPO4, 3.3 KH2PO4, 1.2 MgCl2, 1.2 CaCl2, 10 Glucose, 10 HEPES (pH adjusted to 7.4 with NaOH) and the apical solution contained (in mM) 145 NaGluconate, 1.2 MgCl2, 1.2 CaCl2, 10 glucose, 10 HEPES (pH adjusted to 7.4 with NaOH) and 30 μM amiloride to block the epithelial sodium channel. Forskolin (20 μM) was added to the apical surface to activate CFTR, followed by apical addition of a CFTR inhibitor cocktail consisting of BPO, GlyH-101, and CFTR inhibitor 172 (each at 20 μM final assay concentration) to specifically isolate CFTR currents. The CFTR-mediated ISC (μA/cm^2) for each condition was determined from the peak forskolin response to the steady-state current following inhibition.
The activity of the CFTR corrector compounds on the CFTR-mediated ISC was determined in Ussing chamber studies as described above. The F508del/MF-HBE cell cultures were either incubated with the corrector compounds at a range of concentrations in combination with 33 nM (6R,12R)-17-amino-12-methyl-6,15-bis(trifluoromethyl)-13,19-dioxa-3,4,18-triazatricyclo[12.3.1.12,5]nonadeca-1(18),2,4,14,16-pentaen-6-ol and 18 μM Tezacaftor or were incubated with the corrector compounds at a single fixed concentration of 1 μM in combination with 44 nM (6R,12R)-17-amino-12-methyl-6,15-bis(trifluoromethyl)-13,19-dioxa-3,4,18-triazatricyclo[12.3.1.12,5]nonadeca-1(18),2,4,14,16-pentaen-6-ol and 18 μM Tezacaftor for 18-24 hours at 37° C. and in the presence of 20% human serum. The concentration of corrector compounds with 44 nM or 33 nM (6R,12R)-17-amino-12-methyl-6,15-bis(trifluoromethyl)-13,19-dioxa-3,4,18-triazatricyclo[12.3.1.12,5]nonadeca-1(18),2,4,14,16-pentaen-6-ol and 18 μM Tezacaftor during the 18-24 hours incubations was kept constant throughout the Ussing chamber measurement of the CFTR-mediated ISC to ensure compounds were present throughout the entire experiment. The efficacy and potency of the putative F508del correctors was compared to that of the known Vertex corrector, (14S)-8-[3-(2-{Dispiro[2.0.2.1]heptan-7-yl}ethoxy)-1H-pyrazol-1-yl]-12,12-dimethyl-2λ^6-thia-3,9,11,18,23-pentaazatetracyclo[17.3.1.111,14.05,10]tetracosa-1(22),5,7,9,19(23),20-hexaene-2,2,4-trione, in combination with 18 μM Tezacaftor and 1 μM Ivacaftor.
• Assay A: 0.1 μM to 25 μM, 6 concentrations • Assay B: 0.00001 μM to 25 μM, 12 concentrations • Assay C: 0.026 μM to 25 μM, 6 concentrations • Assay D: Activity at single concentration of 1 μM

T1 sequence (P13569 with tags, fused parts or gaps DEL508-508): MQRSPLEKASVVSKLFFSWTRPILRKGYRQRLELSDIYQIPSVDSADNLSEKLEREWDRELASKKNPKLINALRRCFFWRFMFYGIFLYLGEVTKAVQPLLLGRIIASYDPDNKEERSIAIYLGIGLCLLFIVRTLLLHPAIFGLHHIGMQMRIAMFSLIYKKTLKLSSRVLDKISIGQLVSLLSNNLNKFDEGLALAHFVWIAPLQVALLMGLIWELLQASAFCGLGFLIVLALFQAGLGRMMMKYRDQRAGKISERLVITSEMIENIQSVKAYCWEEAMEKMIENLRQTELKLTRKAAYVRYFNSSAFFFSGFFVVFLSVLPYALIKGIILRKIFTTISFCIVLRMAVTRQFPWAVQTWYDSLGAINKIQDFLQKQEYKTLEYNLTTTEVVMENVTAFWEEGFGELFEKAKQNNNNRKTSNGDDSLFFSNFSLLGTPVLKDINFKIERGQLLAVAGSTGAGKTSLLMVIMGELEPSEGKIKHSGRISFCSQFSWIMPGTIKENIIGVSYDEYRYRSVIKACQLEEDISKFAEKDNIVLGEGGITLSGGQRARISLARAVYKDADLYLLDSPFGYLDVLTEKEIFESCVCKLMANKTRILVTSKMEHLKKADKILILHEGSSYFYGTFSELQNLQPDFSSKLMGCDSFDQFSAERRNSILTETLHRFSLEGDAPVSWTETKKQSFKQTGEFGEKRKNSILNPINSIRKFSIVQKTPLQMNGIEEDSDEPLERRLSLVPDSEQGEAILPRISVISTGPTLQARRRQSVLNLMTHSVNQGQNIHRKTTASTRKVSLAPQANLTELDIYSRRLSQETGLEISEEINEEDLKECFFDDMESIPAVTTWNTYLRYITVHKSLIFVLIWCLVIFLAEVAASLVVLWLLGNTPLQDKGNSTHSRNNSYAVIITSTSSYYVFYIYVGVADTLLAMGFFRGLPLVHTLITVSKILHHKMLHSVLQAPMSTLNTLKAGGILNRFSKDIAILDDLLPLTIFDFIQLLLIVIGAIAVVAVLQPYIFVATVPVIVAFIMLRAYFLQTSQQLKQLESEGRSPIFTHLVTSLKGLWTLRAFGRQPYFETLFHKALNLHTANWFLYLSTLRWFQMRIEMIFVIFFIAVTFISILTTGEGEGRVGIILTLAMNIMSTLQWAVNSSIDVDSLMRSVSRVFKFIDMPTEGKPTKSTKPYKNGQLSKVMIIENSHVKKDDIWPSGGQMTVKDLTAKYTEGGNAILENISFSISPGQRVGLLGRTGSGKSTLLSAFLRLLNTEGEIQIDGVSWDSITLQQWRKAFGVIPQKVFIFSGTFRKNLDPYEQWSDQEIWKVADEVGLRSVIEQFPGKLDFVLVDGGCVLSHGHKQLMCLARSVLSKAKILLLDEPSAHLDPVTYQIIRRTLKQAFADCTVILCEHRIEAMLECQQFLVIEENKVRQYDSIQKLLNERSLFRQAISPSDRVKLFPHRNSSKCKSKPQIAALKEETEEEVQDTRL

D activity at 1 μM (%), +++ (+++ is >60%):
Cc1cccc(C)c1-c1nc2nc(c1C)OC[C@@H](CC1(C)CC1)N(Cc1cnc3oc(C(C)(C)C)cc3n1)C(=O)c1cccc(c1)S(=O)(=O)N2 [Compound I-221]
Cc1cccc(C)c1-c1cc2nc(n1)NS(=O)(=O)c1cccc(c1)C(=O)N(Cc1cnc3c(n1)CN(C(C)C)C3=O)[C@@H](CCC1(C)CC1)CO2 (stereo in doubt) [III-19]
Cc1cccc(C)c1-c1cc2nc(n1)NS(=O)(=O)c1cccc(c1F)C(=O)N(Cc1cnc3cc(C(C)C)n(CCO)c3n1)[C@H](CC1(C)CC1)CO2 [Compound I-215]
Cc1cccc(C)c1-c1cc2nc(n1)NS(=O)(=O)c1cccc(c1)C(=O)N(Cc1cnc3nc(C4CC4)n(C)c3n1)[C@H](CC(C)(C)C)CO2 [Compound I-141]
Cc1cccc(C)c1-c1cc2nc(n1)NS(=O)(=O)c1cccc(c1)C(=O)N(Cc1cnc3cc(C(C)C)n(C)c3n1)C(CC(C)(C)C1CC1)CO2 (stereo not drawn) [Compound I-108]
Cc1cccc(C)c1-c1cc2nc(n1)NS(=O)(=O)c1cccc(c1)C(=O)N(Cc1cnc3cc(C(C)C)n(C)c3n1)[C@H](COC1CCCC1)CO2 [Compound I-121, (11R)-11-(Cyclopentoxymethyl)-6-(2,6-dimethylphenyl)-12-[(6-isopropyl-5-methyl-pyrrolo[2,3-b]pyrazin-3-yl)methyl]-2,2-dioxo-9-oxa-2λ^6-thia-3,5,12,19-tetrazatricyclo[12.3.1.14,8]nonadeca-1(18),4(19),5,7,14,16-hexaen-13-one]
Cc1cccc(C)c1-c1cc2nc(n1)NS(=O)(=O)c1cccc(c1)C(=O)N(Cc1cnc3c(n1)C(=O)N(C(C)C)[C@@H]3C)[C@H](CC(C)(C)C)CO2 (stereo in doubt) [III-23]
Cc1cccc(C)c1-c1cc2nc(n1)NS(=O)(=O)c1cccc(c1)C(=O)N(Cc1cnc3oc(C(C)C)cc3n1)[C@H](CC(C)(C)C(F)(F)F)CO2 [Compound I-60]
Cc1cccc(C)c1-c1cc2nc(n1)NS(=O)(=O)c1cccc(c1)C(=O)N(Cc1cnc3oc(C(C)C)c(N)c3n1)[C@H](CC1(C)CC1)CO2 [Compound I-237, (11R)-12-[(7-Amino-6-isopropyl-furo[2,3-b]pyrazin-2-yl)methyl]-6-(2,6-dimethylphenyl)-11-[(1-methylcyclopropyl)methyl]-2,2-dioxo-9-oxa-2λ^6-thia-3,5,12,19-tetrazatricyclo[12.3.1.14,8]nonadeca-1(18),4(19),5,7,14,16-hexaen-13-one]
Cc1cccc(C)c1-c1cc2nc(n1)NS(=N)(=O)c1cccc(c1)C(=O)N(Cc1cnc3oc(C4CC4)cc3n1)[C@H](CC(C)(C)C)CO2 (stereo partly drawn) [Compound I-148, (11R)-12-[(6-cyclopropylfuro[2,3-b]pyrazin-2-yl)methyl]-6-(2,6-dimethylphenyl)-11-(2,2-dimethylpropyl)-2-imino-2-oxo-9-oxa-2λ^6-thia-3,5,12,19-tetrazatricyclo[12.3.1.14,8]nonadeca-1(18),4(19),5,7,14,16-hexaen-13-one]

same assay, conditions: with 44 nM potentiator and 18 μM Tezacaftor, 20% human serum

D act. at 1 μM (%), +++ (+++ is >60%):
Cc1cccc(C)c1-c1cc2nc(n1)NS(=O)(=O)c1cccc(c1)C(=O)N(Cc1cnc3oc(C#N)cc3n1)[C@H](CC1(C)CC1)CO2 [IV-28]
Cc1cccc(C)c1-c1cc2nc(n1)NS(=O)(=O)c1cccc(c1)C(=O)N(Cc1cnc3sc(C4CC4)cc3n1)[C@H](CC1(C)CC1)CO2 [IV-41]
